Measured values reported in publication PMC6651387, “Fine-Tuning the Activation Mode of an 1,3-Indandione-Based Ruthenium(II)-Cymene Half-Sandwich Complex by Variation of Its Leaving Group” (Molecules, 2019).

Key:
[1] = Lipophilicity by RP-UHPLC capacity factors (logkw, Φ0); assay type: physicochemical; details: for Intercept logkw: RP-UHPLC, MeOH/0.1% formic acid in water, 25 °C, logk extrapolated to 100% water; for Φ0: percentage of methanol in the eluent at which logk is zero, Φ0 = −logkw/S; for Slope S: slope of logk against % organic eluent (MeOH)
Text: It stands to reason that the higher the lipophilicity, the higher the cell accumulation; as far as passive diffusion is concerned, the higher efficiency with which normal cell function is compromised. As a consequence, lipophilicity is an important factor in drug development, described by the partition coefficient logP, which is routinely determined by the distribution of a compound in 1-octanol/water. However, 1-octanol, a solvent said to closely mimic the solubilizing behavior of cell membranes, forms emulsions with water. Additionally, the shake-flask method, seemingly easy, requires long sample preparation, has a low sample throughput, and lacks reproducibility, as it hinges on exact temperature control and consistent equilibration time allotted for every analyte. The time-consuming nature of this method may also lead to decomposition of the analyte. A concentration-, flow rate-, and column length-independent method is the determination of the capacity factor (k) via HPLC. The capacity factor is a measure for the equilibrium concentration between a polar phase (eluent) and an apolar phase (C18 column coating) and higher resemblance to the partition coefficient in […]. […] The percentage of methanol in the eluent at which logk is equal to zero is Φ0 [27, 28, 29].
The capacity factors k were determined with the use of an RP-UHPLC. The necessary chromatograms were recorded with a Dionex UltiMate 3000 RS UHPLC system (Thermo Fisher Scientific, Bedford, MA, USA) controlled by the Dionex Chromeleon 7.2 software. […] The capacity factors were then calculated as logk = log[(tR − t0)/t0], where tR and t0 are the retention times of the analyte and the dead time marker, respectively, at the respective MeOH:0.1% FA in water ratio. Every retention time was determined in isocratic mode for the different eluent ratios to obtain capacity factors in the linear range (−0.5 ≤ logk ≤ 1.5) in triplicate. A plot of logk against the % of the organic eluent yielded logkw (intercept) and S (slope). Φ0, the factor most closely resembling logP, was then determined as follows: Φ0 = −logkw/S [28].

[2] = tested on: SW480 (colon cancer) cells; assay: MTT antiproliferative assay, SW480; assay type: cell-based, human; details: exposure time 96 h, means ± standard deviations
Description: (§1) CH1/PA-1 (ovarian teratocarcinoma) cells were a generous gift from Lloyd R. Kelland (CRC Centre for Cancer Therapeutics, Institute of Cancer Research, Sutton, UK). A549 (non-small cell lung cancer), SW480, and HCT116 (both colon cancer) cells were kindly provided by the Institute of Cancer Research, Department of Medicine I, Medical University of Vienna, Austria. All cell lines were grown as monolayer cultures in Eagle’s MEM supplemented with L-glutamine (4 mM), sodium pyruvate (1 mM) and 1% (v/v) non-essential amino acid solution (all from Sigma-Aldrich) and 10% (v/v) heat-inactivated fetal calf serum (FCS, BioWest) in 75-cm^2 flasks (Starlab) at 37 °C under a humidified atmosphere containing 5% CO2 in air. […] After 24 h, test compounds were dissolved in DMSO (Fisher Scientific), serially diluted in complete MEM not to exceed a final DMSO content of 0.5% (v/v) and added in 100 μL per well. After 96 h, the drug-containing medium was replaced with 100 µL of RPMI 1640/MTT mixture, i. e., 6 parts of RPMI 1640 medium (Sigma-Aldrich; supplemented with 10% heat-inactivated fetal bovine serum and 4 mM L-glutamine), 1 part of MTT solution in phosphate-buffered saline (5 mg/mL; both from Sigma-Aldrich). After incubation for 4 h, the MTT-containing medium was replaced with 150 μL DMSO per well to dissolve the formazan product formed by viable cells. Optical densities at 550 nm (and at the reference wavelength of 690 nm) were measured with a microplate reader (ELx808, Bio-Tek). The IC50 values relative to untreated controls were interpolated from concentration–effect curves. At least three independent experiments were performed, each with triplicates per concentration level.

[3] = tested on: HCT116 (colon cancer) cells; assay: MTT antiproliferative assay, HCT116; assay type: cell-based, human; details: exposure time 96 h, means ± standard deviations
Description: as §1

[4] = tested on: A549 (non-small cell lung cancer) cells; assay: MTT antiproliferative assay, A549; assay type: cell-based, human; details: exposure time 96 h, means ± standard deviations
Description: as §1

[5] = tested on: SW480 cells; assay: Cellular accumulation by ICP-MS quantification of ruthenium (or platinum); assay type: cell-based, human; details: 50 µM; for cellular ruthenium values: ICP-MS; for cellular accumulation, fg Ru or Pt/Cell: exposure time 2 h, ICP-MS of ruthenium
Description: Ruthenium accumulation was measured by means of inductively coupled plasma mass spectrometry (ICP-MS) upon 2 h exposure of SW480 cells to 50 µM of each compound.
Cellular accumulation of the compounds was studied based on a previously described method with modifications as follows: SW480 cells with a number of 1.8 × 10^5 per well were seeded into 12-well plates in aliquots of 1 mL complete MEM and incubated at 37 °C for 24 h. Then, cells were exposed for 2 h at 37 °C to 50 μM solutions of the test compounds (containing 0.5% DMSO) in 500 µL of fresh complete MEM upon exchange of the medium. Afterwards, cells were washed three times with PBS, and lyzed with 0.4 mL sub-boiled HNO3 per well for 1 h at room temperature. Ruthenium content was quantified by ICP-MS using an Agilent 7500ce quadrupole ICP-MS instrument (Agilent Technologies, Waldbronn, Germany) equipped with a CETAC ASX-520 autosampler (Nebraska, USA) and a MicroMist nebulizer. Ruthenium and indium standards were obtained from CPI International (Amsterdam, The Netherlands). The instrument was equipped with nickel cones and operated at an RF power of 1560 W, with argon as the plasma gas (15 L/min), carrier gas (1.0–1.1 L/min) and make-up gas (0.1–0.2 L/min). The Agilent MassHunter software package (Workstation Software, Version B.01.01, Build 123.11, Patch 4, 2012) was used for data processing. Results are based on at least three independent experiments, each comprising triplicate samples. The instrument was tuned on a daily basis for maximum sensitivity and doubly charged species as well as oxide rates were <5%.

With `Cc1ccc(C(C)C)cc1.O=C1C2=C(NCc3ccccc3)[O][Ru-]([Cl])[O+]=C2c2ccccc21` [1a] the Intercept logkw [1] was 5.41, the Φ0 [1] was 63.19 and the “Slope S” value [1] was −0.0855. The IC50 [2] was 12.4 ± 0.4 µM, the IC50 [3] was 24.8 ± 6.4 µM and the IC50 [4] was 23.4 ± 2.5 µM. The “cellular ruthenium accumulation relative to complex 1d” value ([5]; 2 h) was “almost fiftyfold lower”, the cellular ruthenium values ([5]; 2 h) was < 10 fg/cell and the “cellular accumulation, fg Ru or Pt/Cell” value [5] was 8.4 ± 2.8 fg Ru or Pt/Cell.

For `Cc1ccc(C(C)C)cc1.Cn1ccnc1.F[P-](F)(F)(F)(F)F.O=C1C(=C(NCc2ccccc2)[O][Ru+])C(=O)c2ccccc21` [1b], the Intercept logkw [1] was 5.49, the Φ0 [1] was 61.84 and the “Slope S” value [1] was −0.0888. The IC50 [2] was 10.9 ± 1 µM, the IC50 [3] was 24.6 ± 8.5 µM and the IC50 [4] was 21.4 ± 1.7 µM. For the same compound, the “cellular accumulation, fg Ru or Pt/Cell” value [5] was 97 ± 28 fg Ru or Pt/Cell.

In the case of `Cc1ccc(C(C)C)cc1.F[P-](F)(F)(F)(F)F.O=C1C2=C(NCc3ccccc3)[O][Ru-]([n+]3ccc[nH]3)[O+]=C2c2ccccc21` [1c], the Intercept logkw [1] is reported as 5.36, the Φ0 [1] is reported as 63.72 and the “Slope S” value [1] is reported as −0.0841. For the same compound, the IC50 [2] was 15.2 ± 0.6 µM, the IC50 [3] was 22.4 ± 6 µM and the IC50 [4] was 22.9 ± 3.5 µM. The “cellular accumulation, fg Ru or Pt/Cell” value [5] was 67 ± 27 fg Ru or Pt/Cell.

For `Cc1ccc(C(C)C)cc1.F[P-](F)(F)(F)(F)F.O=C1C2=C(NCc3ccccc3)[O][Ru-]([n+]3c[nH]c4ccccc43)[O+]=C2c2ccccc21` [1d], the Intercept logkw [1] was 5.55, the Φ0 [1] was 65.87 and the “Slope S” value [1] was −0.0843. For the same compound, the IC50 [2] was 8.8 ± 1.3 µM, the IC50 [3] was 18.8 ± 5.8 µM and the IC50 [4] was 19 ± 0.8 µM. The cellular ruthenium values ([5]; 2 h) was > 400 fg/cell and the “cellular accumulation, fg Ru or Pt/Cell” value [5] was 405 ± 128 fg Ru or Pt/Cell.

For `Cc1ccc(C(C)C)cc1.F[P-](F)(F)(F)(F)F.O=C1C2=C(NCc3ccccc3)[O][Ru-]([n+]3cc4ccccc4[nH]3)[O+]=C2c2ccccc21` [1e], the Intercept logkw [1] was 5.94, the Φ0 [1] was 68.88 and the “Slope S” value [1] was −0.0863. The IC50 [2] was 16.8 ± 3.1 µM, the IC50 [3] was 25.1 ± 7.1 µM and the IC50 [4] was 23.7 ± 6.4 µM. For the same compound, the “cellular accumulation, fg Ru or Pt/Cell” value [5] was 114 ± 35 fg Ru or Pt/Cell.

In the case of `Cc1ccc(C(C)C)cc1.F[P-](F)(F)(F)(F)F.O=C1C2=C(NCc3ccccc3)[O][Ru-]([NH+]3CCOCC3)[O+]=C2c2ccccc21` [1g], the Intercept logkw [1] is reported as 5.14, the Φ0 [1] is reported as 59.73 and the “Slope S” value [1] is reported as “–0.0860”. The IC50 [2] was 9.2 ± 1.8 µM, the IC50 [3] was 23.8 ± 7.6 µM and the IC50 [4] was 18.9 ± 1.4 µM. The “cellular accumulation, fg Ru or Pt/Cell” value [5] was 123 ± 32 fg Ru or Pt/Cell.
